According to US4011330A, “Vincaminic acid amides” (Synthelabo, priority 1974, dated 1977):
Like-named read-outs stand apart in the source and are kept apart here.

Assays:
[1] = system: mice of strain CD1; assay: Anoxia test on mice under low (oxygen) pressure conditions; type: in vivo; settings: Mus musculus, ip, intraperitoneally 10 minutes before the test, 190 mm of mercury (5.25% of oxygen), read-out: MAD (mean active dose, the dose which increases the survival time by 100%)
Method: Anoxia test on mice under low (oxygen) pressure conditions
Mice of strain CD1 are kept in an atmosphere depleted in oxygen, by producing a partial vacuum (190 mm of mercury, corresponding to 5.25% of oxygen).
The survival time of the animals is noted. This time is increased by agents capable of assisting tissue oxygenation and in particular cerebral oxygenation. The compounds studied are administered in several doses intraperitoneally 10 minutes before the test. The percentage increases in the survival time relative to the values obtained with control animals are calculated. The mean active dose (MAD), the dose which increases the survival time by 100%, is determined graphically.

[2] = system: mice of the CD1 strain; assay: Acute toxicity (LD50) in mice; type: in vivo
Method: (§1) The compounds were administered orally to mice of the CD1 strain. The mortality was recorded over 7 days and the 50% lethal doses (LD50) were determined graphically.
(§2) The toxicities on intraperitoneal and intravenous administration were determined in accordance with the method of Miller and Taniter (Proc. Soc. Exp. Biol. Med. 1944- vol 57, page 261).

[3] = Acute toxicity (LD50) in mice; type: in vivo; settings: mouse, in vivo, mice, compounds tested in a solution containing ascorbic acid; for LD50 at 168 h: oral, mortality over 7 days
Method: as §1, §2

[4] = Solubility in water (remark in preparation example); type: physicochemical; settings: base
[5] = ip, intraperitoneal, read-out: LD50 intraperitoneal
[6] = intravenous, read-out: LD50 intravenous

Compound	ED (100% increase in survival time) [1] [mg/kg]	resorption by the digestive tract ([2]; inferred from oral/intravenous LD50 ratio)	ratio of the LD50 for oral administration to the LD50 for intravenous administration ([2]; mice, oral/intravenous)	LD50 [3, 5] [mg/kg]	LD50 [3, 6] [mg/kg]	LD50 at 168 h [3] [mg/kg]	water solubility [4]
CCC12CCCN3CCc4c(n(c5ccccc45)C(C(=O)NC4CCC4)C1)C32 (stereo not shown) [SLD 142, N-cyclobutyldesoxyvincaminamide]	0.5	–	–	–	–	–	–
CCC12CCCN3CCc4c(n(c5ccccc45)C(C(=O)NC4CC4)C1)C32 (stereo not shown) [SLD 105, N-cyclopropyldesoxyvincaminamide]	1	good	low	165	76	290	water-insoluble
CCC12CCCN3CCc4c(n(c5ccccc45)C(C(=O)NC4CCCCC4)C1)C32 (stereo not shown) [S.L.D. 135, N-cyclohexyldesoxyvincaminamide]	–	–	–	–	–	–	water-insoluble
CC[C@]12CCCN3CCc4c(n(c5ccccc45)[C@@](O)(C(=O)OC)C1)[C@@H]32 [Vincamine, reference compound]	8	–	–	–	75	–	–
CCC12CCCN3CCc4c(n(c5ccccc45)C(C(N)=O)C1)C32 (stereo not shown) [SLC 156, Desoxyvincaminamide]	1.8	–	–	210	109	607	–
CCC12C=C(C(=O)NC3CC3)n3c4c(c5ccccc53)CCN(CCC1)C42 (stereo not shown) [SLD 121, N-monocyclopropylapovincaminamide]	2.5	–	–	–	–	–	–
